Consider 8 compounds from PMC5286460 (ACS Omega, 2017).

For orientation: IC50 means the concentration needed to halve the response being measured. A lower IC50 goes with inhibition by little substance.

Molecules are shown by their SMILES. “Also recorded” adds a separate entry of the source.

Data set [1] can be described thus: UV–vis absorption and fluorescence spectroscopy. The class given is physicochemical. The settings on record: 10% DMSO; for λmax abs: 10-15 μM.
Data set [2] has as its system Capan-1 cells. Put plainly: Subcellular colocalization, live cell imaging. The class given is cell-based, human. Conditions: 0.5 μM, 1 h incubation.
The next data set relates to healthy CD-1 mice. The experiment in a line: In vivo biodistribution imaging in healthy mice. Further details: species or system mouse. Conditions: for pancreas specificity / accumulation: systemic administration.
Data set [3] deals with genetically modified PDAC mice. The experiment in a line: In vivo biodistribution and ex vivo pathology in PDAC tumor-bearing mice. Conditions: 100 nmol systemic, 1.5 h. More on the design: species or system mouse.
The subject of data set [4] is pancreas tissue derived from healthy and PDAC mice. Put plainly: Ex vivo staining of pancreas tissue from healthy and PDAC mice. Conditions: PDAC mouse pancreas tissue slides.
A short description of data set [5]: Cell viability by Cell Titer-Blue assay. Format: cell-based. The settings on record: human, Capan-1 cells. (Resazurin is reduced to fluorescent resorufin, in cell work by metabolically active cells.)
Data set [6] relates to Capan-1 cells. Put plainly: Cellular uptake in Capan-1 cells. Conditions: within 30 min of application. The class given is cell-based, human.
The mark [7] stands for this setting: acidic solution pH 1.9, 12.5 mM HCl.

Regarding `COC(=O)c1ccccc1-c1c2ccc(=N)cc-2oc2c1ccc1cccc(O)c12.Cl` [Compound 3], in data set [1] (setting [7]), the Stokes shift is listed as 62 nm, the brightness stood at 226, the λmax em was determined as 604 nm and the “φ (quantum yield)” value is given as 1.14%. The λmax abs in data set [1] (setting [7]) turned out to be 542 nm.
In the case of `COC(=O)c1ccccc1-c1c2ccc(=[N+](C)C)cc-2oc2c1ccc1cccc(OC)c12.[Cl-]` [Compound 6], in data set [1] (pH 7.4 phosphate buffer), the Stokes shift came out at 38 nm, the brightness is reported as 2094, the λmax em is reported as 606 nm and the “φ (quantum yield)” value turned out to be 9.32%. In addition, the λmax abs in data set [1] (pH 7.4 phosphate buffer) was 568 nm.
`COC(=O)c1ccccc1-c1c2ccc(=O)cc-2oc2c1ccc1cccc(N(C)C)c12` [Compound 8]: the λmax em in data set [1] (basic solution pH 12.1, 12.5 mM NaOH) is given as 530 nm.
On to `COC(=O)c1ccccc1-c1c2ccc(=N)cc-2oc2c1ccc1cccc(N)c12.Cl` [Compound 9], for which, in data set [1] (pH 7.4 phosphate buffer), the Stokes shift turned out to be 184 nm, the brightness was 25, the λmax em turned out to be 760 nm and the “φ (quantum yield)” value was 0.18%. In data set [1] (pH 7.4 phosphate buffer), this compound displayed a λmax abs of 576 nm.
Turning to `COC(=O)c1ccccc1C1=c2cc3c4c(c2Oc2c1ccc1cccc(O)c21)CCC[N+]=4CCC3.[Cl-]` [Compound 11], in data set [1] (setting [7]), the Stokes shift amounted to 39 nm, the brightness stood at 2314, the λmax em worked out at 624 nm and the “φ (quantum yield)” value worked out at 15.3%. Besides, the λmax abs in data set [1] (setting [7]) is given as 585 nm.
With `COC(=O)c1ccccc1C1=c2cc3c4c(c2Oc2c1ccc1cccc(OC)c21)CCC[N+]=4CCC3.[Cl-]` [Compound 12], the subcellular localization result in the data set on Capan-1 cells [2] is recorded as “extensive accumulation in the mitochondria”. In the data set on healthy CD-1 mice (100 nmol systemic (MB 120 nmol)), the “uptake in normal pancreas tissue as compared to MB” value is reported as 4 fold. Moreover, in the data set with healthy CD-1 mice (4 h time point), the “fluorescence SBR in the pancreas vs surrounding organs” value is “highest and most persistent fluorescence SBR in the pancreas”. For the same compound, in the data set on healthy CD-1 mice, the “pancreas specificity / accumulation” value was “improved pancreas specificity”. Besides, in data set [1] (pH 7.4 phosphate buffer), the Stokes shift turned out to be 40 nm, the brightness turned out to be 2022, the λmax em stood at 622 nm and the “φ (quantum yield)” value is 11.38%. This compound also displayed a λmax abs in data set [1] (pH 7.4 phosphate buffer) of 582 nm. Further, the “PDAC-specific fluorescence / accumulation” value in data set [3] is recorded as “Significantly more fluorescence; also recorded: significantly higher than that in the surrounding tissues”. Further, the “ex vivo staining pattern in cancerous tissue” value in data set [4] is “localized in the PDAC-associated ductal epithelial cells”. Moreover, in data set [5], the IC50 at 24 h came out at 17.8 µM.
In the case of `COC(=O)c1ccccc1C1=c2cc3c4c(c2Oc2c1ccc1cccc(N)c21)CCC[N+]=4CCC3.[Cl-]` [Compound 13], the subcellular localization result with Capan-1 cells [2] is “extensive accumulation in the mitochondria”. Moreover, the “pancreas specificity / accumulation” value in the data set on healthy CD-1 mice is “diminished pancreas accumulation”. Also, the relative cellular uptake result in the data set with Capan-1 cells [6] is “greatest uptake”. Further, in data set [1] (pH 7.4 phosphate buffer), the Stokes shift was 139 nm, the brightness was found to be 85, the λmax em is reported as 740 nm and the “φ (quantum yield)” value was determined as 0.66%. This compound returned a λmax abs in data set [1] (pH 7.4 phosphate buffer) of 601 nm. In data set [5], this compound yielded an IC50 at 24 h of 26.1 µM.
With `CN(C)c1ccc2nc3ccc(=[N+](C)C)cc-3sc2c1` [MB, methylene blue, reference compound], the “pancreas specificity / accumulation” value with healthy CD-1 mice is “poor penetration into normal pancreas tissue; also recorded: diminished pancreas accumulation”.
